The text below walks through data of patent publication US20240101528A1, “SUBSTITUTED PYRAZOLO PIPERIDINE CARBOXYLIC ACIDS” (BAYER AKTIENGESELLSCHAFT, priority 2020, published 2024).

Each structure is given as a SMILES string. Where a name gives a salt, the structure may show the parent alone.

In this assay the target is T1, recombinant guanylate cyclase reporter cell line (Rattus norvegicus, UniProt P20595).
T1 construct: expressed in transfected cells
T1 sequence (P20595 1-619): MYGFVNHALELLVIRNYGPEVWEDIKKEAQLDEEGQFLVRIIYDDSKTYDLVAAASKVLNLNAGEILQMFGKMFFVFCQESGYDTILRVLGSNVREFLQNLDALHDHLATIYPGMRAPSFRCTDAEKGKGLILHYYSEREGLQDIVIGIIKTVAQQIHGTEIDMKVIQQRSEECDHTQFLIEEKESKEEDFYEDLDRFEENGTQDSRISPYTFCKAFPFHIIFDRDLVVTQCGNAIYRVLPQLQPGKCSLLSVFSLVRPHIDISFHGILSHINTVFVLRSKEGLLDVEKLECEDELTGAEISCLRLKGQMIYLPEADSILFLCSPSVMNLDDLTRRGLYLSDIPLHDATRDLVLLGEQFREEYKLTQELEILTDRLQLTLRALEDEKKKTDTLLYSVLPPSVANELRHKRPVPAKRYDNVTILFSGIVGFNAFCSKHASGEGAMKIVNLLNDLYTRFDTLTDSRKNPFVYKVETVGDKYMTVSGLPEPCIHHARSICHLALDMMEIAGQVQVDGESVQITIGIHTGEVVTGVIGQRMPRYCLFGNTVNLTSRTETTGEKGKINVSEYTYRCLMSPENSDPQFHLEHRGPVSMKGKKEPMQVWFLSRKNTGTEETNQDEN
T1 sequence (P19686 1-690 partner): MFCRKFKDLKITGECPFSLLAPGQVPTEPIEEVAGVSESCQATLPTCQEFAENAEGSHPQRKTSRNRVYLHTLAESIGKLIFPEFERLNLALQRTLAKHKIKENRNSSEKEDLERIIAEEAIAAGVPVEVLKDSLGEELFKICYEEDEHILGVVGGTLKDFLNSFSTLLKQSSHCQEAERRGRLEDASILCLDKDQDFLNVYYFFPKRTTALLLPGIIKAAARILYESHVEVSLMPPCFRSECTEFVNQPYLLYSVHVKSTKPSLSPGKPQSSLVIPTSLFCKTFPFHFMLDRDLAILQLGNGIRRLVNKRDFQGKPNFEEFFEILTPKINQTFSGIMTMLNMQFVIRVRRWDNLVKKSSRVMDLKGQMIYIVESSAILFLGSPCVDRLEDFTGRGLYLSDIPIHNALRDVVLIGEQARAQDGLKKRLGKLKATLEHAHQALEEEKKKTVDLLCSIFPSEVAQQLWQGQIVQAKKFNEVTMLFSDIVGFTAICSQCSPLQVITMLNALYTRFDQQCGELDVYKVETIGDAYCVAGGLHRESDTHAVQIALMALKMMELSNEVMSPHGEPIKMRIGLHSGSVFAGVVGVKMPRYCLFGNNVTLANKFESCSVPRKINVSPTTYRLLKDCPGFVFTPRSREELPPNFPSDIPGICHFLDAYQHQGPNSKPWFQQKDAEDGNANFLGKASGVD
In words: Effect on a recombinant guanylate cyclase reporter cell line. To be noted: for EC50: half maximal effective concentration; for MEC: minimum effective concentration. The assay is classed as cell-based. Here is the method: B-1. Effect on a Recombinant Guanylate Cyclase Reporter Cell Line
The cellular activity of the compounds according to the invention was determined using a recombinant guanylate cyclase reporter cell line, as described in F. Wunder et al., Anal. Biochem. 339, 104-112 (2005).

In the case of `CC(C)C(=O)N1CCN(c2ccc(-c3ccc(Cl)cc3N3CCCC(n4ncc(C(=O)O)c4C(F)F)C3)cc2)CC1` (single isomer, unassigned; enantiomer 2) [Example 48, 1-{1-[4-Chloro-4′-(4-isobutyrylpiperazin-1-yl)[biphenyl]-2-yl]piperidin-3-yl}-5-(difluoromethyl)-1H-pyrazole-4-carboxylic acid (Enantiomer 2)], the EC50 (in general, the concentration needed to bring the measured effect to its halfway point) stood at 0.0075 µM and the MEC came out at 3.0 nM.
In the case of `CC(C)(F)C(=O)N1CCN(c2ccc(-c3ccc(Cl)cc3N3CCCC(n4ncc(C(=O)O)c4C(F)F)C3)cc2)CC1` (single isomer, unassigned; enantiomer 2) [Example 49, 1-(1-{4-Chloro-4′-[4-(2-fluoro-2-methylpropanoyl)piperazin-1-yl][biphenyl]-2-yl}piperidin-3-yl)-5-(difluoromethyl)-1H-pyrazole-4-carboxylic acid (Enantiomer 2)], the half-maximal effective concentration (EC50) came to 0.0139 µM and the MEC is recorded as 3.0 nM.
For `O=C(O)c1cnn(C2CCCN(c3cc(Cl)ccc3-c3ccc(N4CCN(C(=O)C5CC5)CC4)cc3)C2)c1C(F)F` (single isomer, unassigned; enantiomer 2) [Example 50, 1-(1-{4-Chloro-4′-[4-(3-cyclopropylcarbonyl)piperazin-1-yl][biphenyl]-2-yl}piperidin-3-yl)-5-(difluoromethyl)-1H-pyrazole-4-carboxylic acid (Enantiomer 2)], in that order: 0.0019 µM and 0.3 nM.
On the same counts, the results for `CC(C)CC(=O)N1CCN(c2ccc(-c3ccc(Cl)cc3N3CCCC(n4ncc(C(=O)O)c4C(F)F)C3)cc2)CC1` (single isomer, unassigned; enantiomer 2) [Example 51, 1-(1-{4-Chloro-4′-[4-(3-methylbutanoyl)piperazin-1-yl][biphenyl]-2-yl}piperidin-3-yl)-5-(difluoromethyl)-1H-pyrazole-4-carboxylic acid (Enantiomer 2)] are 0.0284 µM and 3.0 nM.
On the same counts, the results for `CCN1CCN(c2ccc(-c3ccc(Cl)cc3N3CC(n4ncc(C(=O)O)c4C(F)F)CC(F)(F)C3)cc2)CC1` (single isomer, unassigned; enantiomer 2) [Example 53, 1-{1-[4-chloro-4′-(4-ethylpiperazin-1-yl)[biphenyl]-2-yl]-5,5-difluoropiperidin-3-yl}-5-(difluoromethyl)-1H-pyrazole-4-carboxylic acid hydrochloride (Enantiomer 2)] are 0.034 µM and 10.0 nM.
Take `CC(C)CN1CCN(c2ccc(-c3ccc(Cl)cc3N3CC(n4ncc(C(=O)O)c4C(F)F)CC(F)(F)C3)cc2)CC1` (single isomer, unassigned; enantiomer 2) [Example 55, 1-{1-[4-Chloro-4′-(4-isobutylpiperazin-1-yl)[biphenyl]-2-yl]-5,5-difluoropiperidin-3-yl}-5-(difluoromethyl)-1H-pyrazole-4-carboxylic acid hydrochloride (Enantiomer 2)]: the concentration for a half-maximal effect (EC50) came out at 0.0565 µM and the MEC is given as 10.0 nM.
As for `CCC(=O)N1CCC(c2ccc(-c3ccc(Cl)cc3N3CCCC(n4ncc(C(=O)O)c4C(F)F)C3)cc2)CC1` (single isomer, unassigned; enantiomer 2) [Example 56, 1-{1-[4-Chloro-4′-(1-propanoylpiperidin-4-yl)[biphenyl]-2-yl]piperidin-3-yl}-5-(difluoromethyl)-1H-pyrazole-4-carboxylic acid hydrochloride (Enantiomer 2)], the EC50 amounted to 0.0015 µM and the MEC turned out to be 1.0 nM.
On the same counts, the results for `O=C(O)c1cnn(C2CCCN(c3cc(Cl)ccc3-c3ccc(C4CCN(C(=O)C5CC5)CC4)cc3)C2)c1C(F)F` (single isomer, unassigned; enantiomer 2) [Example 57, 1-(1-{4-Chloro-4′-[1-(cyclopropylcarbonyl)piperidin-4-yl][biphenyl]-2-yl}piperidin-3-yl)-5-(difluoromethyl)-1H-pyrazole-4-carboxylic acid hydrochloride (Enantiomer 2)] are less than 0.001 µM and 0.3 nM.
For `O=C(O)c1cnn(C2CCCN(c3cc(Cl)ccc3-c3ccc(C4CN(CC(F)(F)F)C4)cc3)C2)c1C(F)F` (single isomer, unassigned; enantiomer 2) [Example 58, 1-(1-{4-Chloro-4′-[1-(2,2,2-trifluoroethyl)azetidin-3-yl][biphenyl]-2-yl}piperidin-3-yl)-5-(difluoromethyl)-1H-pyrazole-4-carboxylic acid hydrochloride (Enantiomer 2)], in that order: 0.0315 µM and 3.0 nM.
In the case of `O=C(O)c1cnn(C2CCCN(c3cc(Cl)ccc3-c3ccc(C4CN(CCC(F)(F)F)C4)cc3)C2)c1C(F)F` (single isomer, unassigned; enantiomer 2) [Example 59, 1-(1-{4-Chloro-4′-[1-(3,3,3-trifluoropropyl)azetidin-3-yl][biphenyl]-2-yl}piperidin-3-yl)-5-(difluoromethyl)-1H-pyrazole-4-carboxylic acid hydrochloride (Enantiomer 2)], the EC50 is 0.0087 µM and the MEC stood at 3.0 nM.
As to `CCN1CCN(c2ccc(-c3ccc(Cl)cc3N3CCCC(n4ncc(C(=O)O)c4C(F)F)C3)cn2)CC1` (single isomer, unassigned; enantiomer 2) [Example 60, 1-(1-{5-Chloro-2-[6-(4-ethylpiperazin-1-yl)pyridin-3-yl]phenyl}piperidin-3-yl)-5-(difluoromethyl)-1H-pyrazole-4-carboxylic acid hydrochloride (Enantiomer 2)], the EC50 is 0.07 µM and the MEC was found to be 30.0 nM.
On the same counts, the results for `CCCN1CCN(c2ccc(-c3ccc(Cl)cc3N3CCCC(n4ncc(C(=O)O)c4C(F)F)C3)cn2)CC1` (single isomer, unassigned; enantiomer 2) [Example 61, 1-(1-{5-Chloro-2-[6-(4-propylpiperazin-1-yl)pyridin-3-yl]phenyl}piperidin-3-yl)-5-(difluoromethyl)-1H-pyrazole-4-carboxylic acid hydrochloride (Enantiomer 2)] are 0.0285 µM and 10.0 nM.
On the same counts, the results for `CC(C)CN1CCN(c2ccc(-c3ccc(Cl)cc3N3CCCC(n4ncc(C(=O)O)c4C(F)F)C3)cn2)CC1` (single isomer, unassigned; enantiomer 2) [Example 62, 1-(1-{5-Chloro-2-[6-(4-isobutylpiperazin-1-yl)pyridin-3-yl]phenyl}piperidin-3-yl)-5-(difluoromethyl)-1H-pyrazole-4-carboxylic acid hydrochloride (Enantiomer 2)] are 0.0075 µM and 3.0 nM.
On the same counts, the results for `O=C(O)c1cnn(C2CCCN(c3cc(Cl)ccc3-c3ccc(N4CCN(CC5CC5)CC4)nc3)C2)c1C(F)F` (single isomer, unassigned; enantiomer 2) [Example 63, 1-[1-(5-Chloro-2-{6-[4-(cyclopropylmethyl)piperazin-1-yl]pyridin-3-yl}phenyl)piperidin-3-yl]-5-(difluoromethyl)-1H-pyrazole-4-carboxylic acid hydrochloride (Enantiomer 2)] are 0.068 µM and 10.0 nM.
As to `O=C(O)c1cnn(C2CCCN(c3cc(Cl)ccc3-c3ccc(N4CCN(CC(F)(F)F)CC4)nc3)C2)c1C(F)F` (single isomer, unassigned; enantiomer 2) [Example 65, 1-[1-(5-Chloro-2-{6-[4-(2,2,2-trifluoroethyl)piperazin-1-yl]pyridin-3-yl}phenyl)piperidin-3-yl]-5-(difluoromethyl)-1H-pyrazole-4-carboxylic acid hydrochloride (Enantiomer 2)], the EC50 came to 0.0069 µM and the MEC stood at 1.0 nM.
